Laboratory results from patent US11247987B2, “Inhibiting ubiquitin specific peptidase 30” (FORMA Therapeutics, Inc., priority 2017, dated 2022).

biological target: T1, human recombinant USP30 (Homo sapiens, UniProt Q70CQ3); experiment: Ubiquitin-Rhodamine 110 Assay for USP30 Activity (USP30 Inhibitor Biochemical Assay); details: 0.2 nM USP30, 25 nM Ub-Rh110, 30 min preincubation, 30 min at room temperature; read-out: USP30 potency range (USP30 biochemical IC50 assay, IC50 ranges)
T1 construct: purchased Boston Biochem E-582
T1 sequence (Q70CQ3 1-517): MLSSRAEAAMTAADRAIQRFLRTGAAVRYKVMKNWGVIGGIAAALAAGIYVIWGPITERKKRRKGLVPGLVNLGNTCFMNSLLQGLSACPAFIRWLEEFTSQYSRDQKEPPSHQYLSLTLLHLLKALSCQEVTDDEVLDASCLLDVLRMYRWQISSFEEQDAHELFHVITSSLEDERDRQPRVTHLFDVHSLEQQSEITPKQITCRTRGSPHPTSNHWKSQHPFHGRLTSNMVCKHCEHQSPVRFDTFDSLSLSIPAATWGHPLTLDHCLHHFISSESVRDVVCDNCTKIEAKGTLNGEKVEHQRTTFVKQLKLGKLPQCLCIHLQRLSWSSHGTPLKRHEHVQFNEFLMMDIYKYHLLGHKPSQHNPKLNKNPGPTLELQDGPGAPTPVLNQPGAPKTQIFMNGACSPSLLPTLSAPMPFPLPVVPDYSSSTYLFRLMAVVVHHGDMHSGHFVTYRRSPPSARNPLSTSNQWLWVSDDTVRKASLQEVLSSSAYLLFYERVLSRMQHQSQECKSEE
Method: Example A: Biochemical Assay: Ubiquitin-Rhodamine 110 Assay for USP30 Activity (USP30 Inhibitor Biochemical Assay)
The assay was performed in a final volume of 9 μL in assay buffer containing 20 mM Tris-HCl (pH 8.0, (1M Tris-HCl, pH 8.0 solution; Corning 46-031-CM)), 1 mM GSH (L-glutathione reduced, Sigma-Aldrich, G4251-100G), 0.03% BGG (0.22 μM filtered, Sigma, G7516-25G), and 0.01% Triton X-100 (Sigma, T9284-10L). Nanoliter quantities of 10-point, 3-fold serial dilution in DMSO were pre-dispensed into 1536 assay plates (Corning, #3724BC) for a final test concentration of 25 μM to 1.3 nM, top to lowest dose, respectively. Concentration and incubation times were optimized for the maximal signal-to-background while maintaining initial velocity conditions at a fixed substrate concentration. The final concentration of USP30 (human recombinant USP30, Boston Biochem, cat. # E-582) in the assay was 0.2 nM. […] 3 μL of 2×USP30 was added to assay plates (pre-stamped with compound), preincubated for 30 minutes and then treated with 3 μL of 2×Ub-Rh110. Plates were incubated for 30 minutes at room temperature before addition of 3 μL of stop solution (final concentration of 10 mM citric acid (Sigma, 251275-500G)). Fluorescence was read on the Envision (excitation at 485 nm and emission at 535 nm; Perkin Elmer) or on the PheraSTAR (excitation at 485 nm and emission at 535 nm; BMG Labtech).
For all assay formats data were reported as percent inhibition compared with control wells based on the following equation: % inh=1−((FLU−AveLow)/(AveHigh−AveLow)) where FLU=measured Fluorescence, AveLow=average Fluorescence of no enzyme control (n=16), and AveHigh=average Fluorescence of DMSO control (n=16). IC50 values were determined by curve fitting of the standard 4 parameter logistic fitting algorithm included in the Activity Base software package: IDBS XE Designer Model205. Data is fitted using the Levenburg Marquardt algorithm.

Structure (SMILES) | IC50
CN(c1ncc(C(C)(C)C)s1)C(=O)[C@H]1C[C@H](NC#N)C1 [Compound 1-5, (1r,3r)-N-(5-tert-butyl-1,3-thiazol-2-yl)-3-(cyanoamino)-N-methylcyclo-butane-1-carboxamide] | 100 to 1000 nM
N#CN[C@H]1C[C@H](C(=O)Nc2sc(C3CCCCC3)nc2Cl)C1 [Compound 1-14, (1r,3r)-N-(4-chloro-2-cyclohexyl-1,3-thiazol-5-yl)-3-(cyanoamino)cyclo-butane-1-carboxamide] | 100 to 1000 nM
N#CN[C@H]1C[C@H](C(=O)Nc2ncc(C3CCCCC3)s2)C1 [Compound 5-7, trans-3-(cyanoamino)-N-(5-cyclohexyl-1,3-thiazol-2-yl)cyclobutane-1-carboxamide] | 100 to 1000 nM
N#CN[C@H]1CC[C@H](C(=O)Nc2ncc(C3CCCCC3)s2)C1 [Compound 12-3, (1S,3S)-3-(cyanoamino)-N-(5-cyclohexyl-1,3-thiazol-2-yl)cyclopentane-1-carboxamide] | 100 to 1000 nM
N#CN[C@H]1CCC[C@H]1C(=O)Nc1ncc(C2CCCCC2)s1 [Compound 10-7, (1R,2S)-2-(cyanoamino)-N-(5-cyclohexyl-1,3-thiazol-2-yl)cyclopentane-1-carboxamide] | 1000 to 10000 nM
CC(C)(C)c1sc(N2CC[C@]3(C[C@H](NC#N)C3)C2=O)nc1Cl (single isomer, unassigned) [Compound 7-1, ([(2r,4s)-6-(5-tert-butyl-4-chloro-1,3-thiazol-2-yl)-5-oxo-6-azaspiro[3.4]octan-2-yl]amino)carbonitrile] | < 100 nM
CC(C)(C)c1cnc(NC(=O)[C@H]2CC[C@@H](NC#N)C2)s1 [Compound 12-7, (1S,3R)-N-(5-tert-butyl-1,3-thiazol-2-yl)-3-(cyanoamino)cyclopentane-1-carboxamide] | 1000 to 10000 nM
N#CN[C@@H]1CC[C@@H](C(=O)Nc2ncc(C3CCOCC3)s2)C1 [Compound 10-11, (1R,3R)-3-(cyanoamino)-N-[5-(oxan-4-yl)-1,3-thiazol-2-yl]cyclopentane-1-carboxamide] | 10000 to 25000 nM
N#CN[C@H]1C[C@]2(CCN(c3nc(Cl)c(C4CCCCC4)s3)C2=O)C1 [Compound 7-3, {[(2r,4s)-6-(4-chloro-5-cyclohexyl-1,3-thiazol-2-yl)-5-oxo-6-azaspiro[3.4]octan-2-yl]amino}carbonitrilc] | < 100 nM
CN(C(=O)c1cc(-c2cccc(C#N)c2)no1)[C@H]1C[C@H](NC#N)C1 [Compound 3-6, 3-(3-cyanophenyl)-N-methyl-N-[(1r,3r)-3-(cyanoamino)cyclobutyl]-1,2-oxazole-5-carboxamide] | 1000 to 10000 nM
C[C@@H]1CCCC[C@H]1c1cnc(NC(=O)[C@H]2C[C@H](NC#N)C2)s1 [Compound 1-24, (1r,3r)-3-(cyanoamino)-N-{5-[(1R,2R)-2-methylcyclohexyl]-1,3-thiazol-2-yl}cyclobutane-1-carboxamide] | < 100 nM
N#CN[C@H]1CC[C@H](C(=O)Nc2ncc(C3CCCCC3)s2)CC1 [Compound 10-2, trans-4-(cyanoamino)-N-(5-cyclohexyl-1,3-thiazol-2-yl)cyclohexane-1-carboxamide] | 1000 to 10000 nM
N#CN[C@H]1C[C@H](C(=O)Nc2cc(-c3cccc(C#N)c3)no2)C1 [Compound 1-51, (1r,3r)-3-(cyanoamino)-N-[3-(3-cyanophenyl)-1,2-oxazol-5-yl]cyclobutane-1-carboxamide] | 100 to 1000 nM
N#CN[C@H]1C[C@H](C(=O)Nc2nc(-c3cnn(C4CC4)c3)c(C3CCCCC3)s2)C1 [Compound 1-26, (1r,3r)-3-(cyanoamino)-N-[5-cyclohexyl-4-(1-cyclopropyl-1H-pyrazol-4-yl)-1,3-thiazol-2-yl]cyclobutane-1-carboxamide] | < 100 nM
COCc1nc(NC(=O)[C@H]2C[C@H](NC#N)C2)sc1C1CCCCC1 [Compound 1-16, (1r,3r)-3-(cyanoamino)-N-[5-cyclohexyl-4-(methoxymethyl)-1,3-thiazol-2-yl]cyclobutane-1-carboxamide] | < 100 nM
N#CN[C@@H]1CCC[C@@H]1C(=O)Nc1ncc(C2CCCCC2)s1 [Compound 10-8, (1S,2R)-2-(cyanoamino)-N-(5-cyclohexyl-1,3-thiazol-2-yl)cyclopentane-1-carboxamide] | 1000 to 10000 nM
N#CN[C@H]1CC[C@H](C(=O)N2CCN(c3ccccc3)CC2)C1 [Compound 12-6, {[(1S,3S)-3-(4-phenylpiperazine-1-carbonyl)cyclopentyl]amino}carbonitrile] | > 25000 nM
N#CN[C@H]1C[C@H](C(=O)Nc2ncc(-c3ccccc3)s2)C1 [Compound 5-8, trans-3-(cyanoamino)-N-(5-phenyl-1,3-thiazol-2-yl)cyclobutane-1-carboxamide] | 1000 to 10000 nM
CC1(C)CCCC[C@@H]1c1ncc(NC(=O)[C@H]2C[C@H](NC#N)C2)s1 [Compound 1-12, (1r,3r)-3-(cyanoamino)-N-{2-[(1S)-2,2-dimethylcyclohexyl]-1,3-thiazol-5-yl}cyclobutane-1-carboxamide] | < 100 nM
C[C@H]1CCCC[C@H]1c1cnc(NC(=O)[C@H]2C[C@H](NC#N)C2)s1 [Compound 1-22, (1r,3r)-3-(cyanoamino)-N-{5-[(1R,2S)-2-methylcyclohexyl]-1,3-thiazol-2-yl}cyclobutane-1-carboxamide] | 100 to 1000 nM
N#CN[C@H]1C[C@H](C(=O)Nc2ncc([C@H]3CCCC[C@@H]3C(F)(F)F)s2)C1 [Compound 1-34, (1r,3r)-3-(cyanoamino)-N-{5-[(1S,2S)-2-(trifluoromethyl)cyclo-hexyl]-1,3-thiazol-2-yl}cyclobutane-1-carboxamide] | 100 to 1000 nM
N#CNC1CN(C(=O)Nc2ncc(C3CCCCC3)s2)C1 [Compound 2-1, 3-(cyanoamino)-N-(5-cyclohexyl-1,3-thiazol-2-yl)azetidine-1-carboxamide] | 1000 to 10000 nM
N#CN[C@H]1C[C@H](C(=O)Nc2ccc3c(c2)CCC3)C1 [Compound 5-12, trans-3-(cyanoamio)-N-(2,3-dihydro-1H-inden-5-yl)cyclobutane-1-carboxamide] | 1000 to 10000 nM
C[C@@H]1CCCC[C@@H]1c1cnc(NC(=O)[C@H]2C[C@H](NC#N)C2)s1 [Compound 1-21, (1r,3r)-3-(cyanoamino)-N-{5-[(1S,2R)-2-methylcyclohexyl]-1,3-thiazol-2-yl}cyclobutane-1-carboxamide] | 100 to 1000 nM
N#CN[C@H]1C[C@H](NC(=O)c2ncc(-c3ccccc3)s2)C1 [Compound 3-1, 5-phenyl-N-[(trans)-3-(cyanoamino)cyclobutyl]-1,3-thiazole-2-carboxamide] | 1000 to 10000 nM
Cn1cc(-c2ccc(-c3cc(C(=O)N4CCC[C@]45C[C@H](NC#N)C5)on3)cc2)cn1 [Compound 3-4, {[(2r,4s)-5-{3-[4-(1-methyl-1H-pyrazol-4-yl)phenyl]-1,2-oxazole-5-carbonyl}-5-azaspiro[3.4]octan-2-yl]amino} carbonitrile] | 100 to 1000 nM
N#CN[C@H]1CC[C@@H](C(=O)Nc2ncc(-c3ccccc3)s2)C1 [Compound 12-1, (1R,3S)-3-(cyanoamino)-N-(5-phenyl-1,3-thiazol-2-yl)cyclopentane-1-carboxamide] | 1000 to 10000 nM
N#CN[C@H]1C[C@H](C(=O)Nc2cnn(-c3ccccc3)c2)C1 [Compound 5-5, trans-3-(cyanoamino)-N-(1-phenyl-1H-pyrazol-4-yl)cyclobutane-1-carboxamide] | 1000 to 10000 nM
N#CN[C@H]1C[C@H](C(=O)Nc2cccc(C(F)(F)F)c2)C1 [Compound 1-73, (1r,3r)-3-(cyanoamino)-N-[3-(trifluoro-methyl)phenyl] cyclobutane-1-carboxamide] | 100 to 1000 nM
N#CN[C@@H]1CCC[C@H]1C(=O)Nc1ncc(C2CCCCC2)s1 [Compound 10-3, (1R,2R)-2-(cyanoamino)-N-(5-cyclohexyl-1,3-thiazol-2-yl)cyclopentane-1-carboxamide] | 1000 to 10000 nM
